Assay results published in patent EP2253324A1, “Use of a casein-derived peptide and compositions thereof as antihypertensive” (CONSEJO SUPERIOR DE INVESTIGACIONES CIENTIFICAS, priority 2009, dated 2010).
Like-named read-outs stand apart in the source and are kept apart here. Where no end group is shown, it is not given here.

Experiments:
[1] = target: T1, Angiotensin-converting enzyme (Oryctolagus cuniculus, UniProt P12822); experiment: ACE-inhibitory activity, spectrophotometric assay (Cushman & Cheung, modified); format: biochemical; details: synthetic peptides
T1 sequence (P12822 34-1310): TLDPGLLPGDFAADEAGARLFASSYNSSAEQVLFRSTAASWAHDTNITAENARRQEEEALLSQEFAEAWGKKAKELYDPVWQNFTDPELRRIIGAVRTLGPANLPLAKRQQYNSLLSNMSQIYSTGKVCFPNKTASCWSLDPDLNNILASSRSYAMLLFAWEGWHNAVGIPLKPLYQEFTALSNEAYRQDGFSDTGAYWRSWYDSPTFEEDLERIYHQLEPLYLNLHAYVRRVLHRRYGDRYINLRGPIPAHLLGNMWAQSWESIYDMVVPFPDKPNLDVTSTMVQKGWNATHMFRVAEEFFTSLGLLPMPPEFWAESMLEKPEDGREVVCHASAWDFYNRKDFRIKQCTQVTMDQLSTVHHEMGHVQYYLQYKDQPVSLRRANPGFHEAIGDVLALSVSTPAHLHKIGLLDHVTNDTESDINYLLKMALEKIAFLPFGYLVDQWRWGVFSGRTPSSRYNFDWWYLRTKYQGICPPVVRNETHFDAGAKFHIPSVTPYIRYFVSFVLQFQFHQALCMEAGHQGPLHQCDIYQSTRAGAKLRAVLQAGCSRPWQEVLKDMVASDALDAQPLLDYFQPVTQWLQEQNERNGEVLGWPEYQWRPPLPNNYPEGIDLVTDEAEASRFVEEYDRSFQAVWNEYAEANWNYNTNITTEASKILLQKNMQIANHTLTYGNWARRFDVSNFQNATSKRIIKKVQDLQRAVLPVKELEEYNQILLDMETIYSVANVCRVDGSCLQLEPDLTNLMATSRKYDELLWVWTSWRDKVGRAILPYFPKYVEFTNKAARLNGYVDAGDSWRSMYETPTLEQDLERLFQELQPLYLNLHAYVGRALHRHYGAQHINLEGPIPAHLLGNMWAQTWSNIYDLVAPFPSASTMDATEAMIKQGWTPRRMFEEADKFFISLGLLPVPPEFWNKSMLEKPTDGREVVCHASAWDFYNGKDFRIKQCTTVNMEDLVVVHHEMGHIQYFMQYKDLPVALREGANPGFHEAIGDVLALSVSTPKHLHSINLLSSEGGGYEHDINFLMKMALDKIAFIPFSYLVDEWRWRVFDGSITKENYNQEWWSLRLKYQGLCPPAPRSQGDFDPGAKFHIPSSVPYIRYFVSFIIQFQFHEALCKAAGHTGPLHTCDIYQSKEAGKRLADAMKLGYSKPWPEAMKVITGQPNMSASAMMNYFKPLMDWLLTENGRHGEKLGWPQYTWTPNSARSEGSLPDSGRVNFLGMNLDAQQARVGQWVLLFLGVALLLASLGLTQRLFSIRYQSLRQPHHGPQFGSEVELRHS
Protocol: ACE-inhibitory activity was measured by Cushman & Cheung 1971 (Biochemical Pharmacology, 20, 1637-1648) spectrophotometric assay with some modifications, as reported by (Quirós et al., 2007). For this purpose, protein concentration of the aliquots of the pepsin hydrolysate was determined by the Kjeldahl method. The protein content of the fractions collected from HPLC was estimated by the bicinchoninic acid assay (Pierce, Rockford, IL, USA) using bovine serum albumin, as standard, and peptide concentration of the chemically synthesized peptides was based in the dry weight of the peptides. Chemical synthesized peptides were purchased from GenScript Corp. (Piscataway, NJ, USA).

SHR rats = experiment: Systolic blood pressure in spontaneously hypertensive rats, tail-cuff method; format: in vivo; details: single oral dose 5 mg kg^-1, followed up to 24 hours
Protocol: All procedures were carried out in accordance with conventional guidelines for experimentation with animals. Twelve-week old male SHR rats were used (Janvier, France); they were housed in groups of four per cage in a regulated environment with a 12 h light/dark cycle in a standard experimental laboratory of the Animal Experimentation Service of the Salamanca University (N°PAE SA001). The animals were deprived of solid diet 12 hours before experiments began but received a nutritive solution of 8% sucrose in 0.2% NaCl to avoid excessive dehydratation. The rats received a single dose of the synthesized peptides or zofenopril (5 mg kg^-1) dissolved in ultrapure water and the control group received the same volume of water. Systolic blood pressure (SBP) was measured in awake rats with an automated multichannel system, using the tail-cuff method with a photoelectric sensor (Niprem 546, Cibertec SA, Spain) as described in Guerrero et al., 2003 (Journal of Cardiovascular Pharmacology 42: 348-355). SBP was measured before administration, and also at 2, 4, 6, 8, 10 and 24 hours post-administration. The changes in SBP were expressed as the differences before and after administration of the different products. Unpaired student's t-test was used to compare groups.

ACE = ACE (Homo sapiens, UniProt P12821); details: cited from earlier work; for IC50: literature values; for ACE-inhibitory activity: literature, in vitro
Chain of ACE (P12821 30-1306, species assumed): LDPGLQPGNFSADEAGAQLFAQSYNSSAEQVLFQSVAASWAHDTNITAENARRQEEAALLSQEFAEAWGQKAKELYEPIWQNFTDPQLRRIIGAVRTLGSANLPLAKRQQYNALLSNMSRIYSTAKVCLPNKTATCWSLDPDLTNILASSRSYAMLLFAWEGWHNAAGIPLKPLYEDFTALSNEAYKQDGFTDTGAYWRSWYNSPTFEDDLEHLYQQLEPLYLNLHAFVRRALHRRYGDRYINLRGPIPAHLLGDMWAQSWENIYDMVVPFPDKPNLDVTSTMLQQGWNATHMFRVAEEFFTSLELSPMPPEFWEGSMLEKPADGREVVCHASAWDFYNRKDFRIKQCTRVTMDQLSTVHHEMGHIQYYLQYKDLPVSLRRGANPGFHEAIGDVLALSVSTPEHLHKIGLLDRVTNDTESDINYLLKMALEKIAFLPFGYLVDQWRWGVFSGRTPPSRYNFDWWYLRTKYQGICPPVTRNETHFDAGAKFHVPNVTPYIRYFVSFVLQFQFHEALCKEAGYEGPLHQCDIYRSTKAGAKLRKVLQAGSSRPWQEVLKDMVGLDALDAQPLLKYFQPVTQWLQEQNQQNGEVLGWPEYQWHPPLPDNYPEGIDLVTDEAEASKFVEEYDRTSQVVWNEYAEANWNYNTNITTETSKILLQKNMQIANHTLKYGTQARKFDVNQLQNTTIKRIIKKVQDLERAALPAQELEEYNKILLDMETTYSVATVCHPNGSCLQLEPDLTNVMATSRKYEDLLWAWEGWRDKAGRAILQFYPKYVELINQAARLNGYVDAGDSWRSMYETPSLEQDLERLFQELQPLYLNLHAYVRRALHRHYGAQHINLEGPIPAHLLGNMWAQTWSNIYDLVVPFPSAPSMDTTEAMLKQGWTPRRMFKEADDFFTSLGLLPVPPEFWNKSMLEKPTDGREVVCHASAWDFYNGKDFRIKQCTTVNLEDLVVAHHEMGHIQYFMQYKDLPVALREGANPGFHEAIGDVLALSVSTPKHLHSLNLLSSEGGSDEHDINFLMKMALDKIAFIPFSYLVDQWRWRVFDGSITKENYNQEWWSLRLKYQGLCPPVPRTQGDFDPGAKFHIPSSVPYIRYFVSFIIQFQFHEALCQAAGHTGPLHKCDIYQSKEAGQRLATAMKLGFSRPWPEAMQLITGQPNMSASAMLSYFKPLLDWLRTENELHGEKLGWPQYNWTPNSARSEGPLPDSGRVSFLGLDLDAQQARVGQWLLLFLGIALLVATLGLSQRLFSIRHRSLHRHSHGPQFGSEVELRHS

SHR = details: literature; cited from earlier work
human volunteers = details: literature; cited from earlier work
[2] = mean ± standard error (n=3), read-out: IC50± SE

| Substance | IC50 [1, 2] | IC50 (ACE) | further results |
| --- | --- | --- | --- |
| AYFYPEL [AYFYPEL] | 6.58 ± 0.5 µM |  | IC50 ([1]; values in text, read-out: IC50): < 20 µM |
| FVAPFPEV [FVAPFPEV] | 476 ± 41.7 µM |  |  |
| HLPLPLL [HLPLPLL] | 34.4 ± 2.22 µM |  |  |
| RYLGY [RYLGY] | 0.71 ± 0.08 µM |  | IC50 ([1]; values in text, read-out: IC50): < 20 µM; antihypertensive effect (change in SBP), in words (SHR rats): lowered SBP in a progressive and maintained manner |
| SEQ ID NO: 3: αs1-CN peptide previously described as an ACE inhibitor (DAYPSGAW) |  | 98 µM |  |
| SEQ ID NO: 5: ACE-inhibitory peptide previously described in the literature, shares five residues with SEQ ID NO: 4 (ENLLRF) |  | 82.4 µM |  |
| SEQ ID NO: 7: literature ACE-inhibitory sequence included in peptide SEQ ID NO: 6 (VTSTAV) |  | 52 µM |  |
| SEQ ID O: 8: literature ACE-inhibitory peptide whose C-terminal tripeptide is LQY (FPQYLQY) |  | 14 µM |  |
| VAPFPEVF [VAPFPEVF] | 363 ± 23.6 µM |  |  |
| YQKFPQY [YQKFPQY] | 20.1 ± 1.25 µM |  | IC50 ([1]; values in text, read-out: IC50): < 20 µM |
| αs1-casein f(23-27): literature peptide with ACE-inhibitory activity but no hypotensive effect in SHR (FFVAP; UniProt P02662 38-42, looked up, fragment) |  |  | hypotensive effect in SHR (SHR): no hypotensive effect; ACE-inhibitory activity (ACE): potent ACE-inhibitory activity |
| β-lactoglobulin f(142-148): literature peptide with in vitro ACE-inhibitory activity (ALPMHIR; UniProt P02754 158-164, looked up, fragment) |  |  | ACE-inhibitory activity (ACE): in vitro ACE-inhibitory activity; effect in human volunteers (human volunteers): did not have effect |
